This is an account of results in article PMC8167103, “Regulation of Bcl-XL by non-canonical NF-κB in the context of CD40-induced drug resistance in CLL” (Cell Death and Differentiation, 2021).

In general, Ki refers to a measure of affinity in units of concentration, obtained from inhibition or displacement.

The target in this experiment is T1, NIK (Homo sapiens, UniProt Q99558).
T1 construct: gene MAP3K14
Put plainly: Kinase-Glo luminescence kinase assay with recombinant human active NIK, myelin basic protein and […] ATP; IC50 converted to Ki. Type of experiment: biochemical. (Kinase-Glo measures the ATP left after a reaction by luminescence.)

T1 sequence (Q99558 whole entry): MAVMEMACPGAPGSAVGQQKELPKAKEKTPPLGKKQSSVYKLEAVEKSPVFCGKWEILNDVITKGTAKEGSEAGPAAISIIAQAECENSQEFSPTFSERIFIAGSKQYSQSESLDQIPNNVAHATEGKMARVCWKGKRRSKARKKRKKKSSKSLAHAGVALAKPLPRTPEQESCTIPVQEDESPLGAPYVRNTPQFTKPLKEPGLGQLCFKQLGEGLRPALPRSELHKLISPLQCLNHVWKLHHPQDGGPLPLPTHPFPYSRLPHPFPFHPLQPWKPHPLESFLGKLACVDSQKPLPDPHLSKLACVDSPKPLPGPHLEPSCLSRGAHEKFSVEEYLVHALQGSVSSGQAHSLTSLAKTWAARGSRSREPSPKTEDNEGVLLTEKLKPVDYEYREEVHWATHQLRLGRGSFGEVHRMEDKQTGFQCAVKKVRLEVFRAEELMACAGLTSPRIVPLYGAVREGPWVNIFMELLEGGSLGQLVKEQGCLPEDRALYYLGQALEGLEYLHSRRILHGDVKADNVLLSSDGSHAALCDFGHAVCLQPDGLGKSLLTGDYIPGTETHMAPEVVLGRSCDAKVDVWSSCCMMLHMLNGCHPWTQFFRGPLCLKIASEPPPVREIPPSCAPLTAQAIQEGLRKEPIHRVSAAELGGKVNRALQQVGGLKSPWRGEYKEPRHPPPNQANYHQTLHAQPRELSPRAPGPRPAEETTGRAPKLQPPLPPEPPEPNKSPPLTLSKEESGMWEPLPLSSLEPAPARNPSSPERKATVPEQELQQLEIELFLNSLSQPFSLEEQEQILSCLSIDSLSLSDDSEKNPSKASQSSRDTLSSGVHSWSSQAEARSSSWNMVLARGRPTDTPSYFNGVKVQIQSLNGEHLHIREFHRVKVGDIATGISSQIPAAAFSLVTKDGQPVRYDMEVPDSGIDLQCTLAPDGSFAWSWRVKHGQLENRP

In the case of `CC(C)(O)C#Cc1ccc2c(c1)N(c1ccnc(N)n1)CC2` [CW15337, 4-(1-(2-aminopyrimidin-4-yl)indolin-6-yl)-2-methylbut-3-yn-2-ol], the Ki is 25 nM.
